Source: patent US7951788B2, “Method of treating cancer and other conditions or disease states using L-cytosine nucleoside analogs” (Yale University, priority 2005, dated 2011)

Legend:
colon 38 mouse tumor = assay: Experiment 1: growth of colon 38 tumor implanted in the flank of mice, drugs alone and combined with 5-FU/leucovorin; assay type: in vivo; details: FIG. 1; for effect on the anti-cancer activity of 5-FU/LV: combination with 5FU/LV 150 mg/kg each i.p. once on day one, nucleoside p.o. b.i.d. for 5 days (3TC, FTC 100 mg/kg; LFD4C 20 mg/kg); for growth of colon 38 mouse tumor (tumor volume as % of Day 1): drug alone; for growth of colon 38 mouse tumor (tumor volume as % of Day 1) / duration of the effect on colon 38 tumor growth: immunocompetent mice, p.o. b.i.d. for 5 days, 3TC and FTC 100 mg/kg, LFD4C 20 mg/kg
Method: (§1) In general, the following protocol was used to implant mice with tumor cell lines and to test drugs for the anti-cancer effect.
(§2) This tumor is passed from a solid tumor growing in mice. Several grams (assuming a gram per ml) are pressed through a sterile screen and suspended in a tissue culture media without phenol red or fetal calf serum (a balanced salt solution) at 2 ml/gram of tumor. Then 0.1 ml of this tumor suspension is implanted into the flank of the mouse. Ten days to two weeks after implantation (when the tumors could be measured with a caliper), unless otherwise indicated, the drug therapy was initiated.
(§3) In general, drugs are delivered according to the following schedule. Every day the mice are weighed to deter the amount to be injected and as an index of toxicity.
(§4) The Tumor Volume is calculated from the measurements by the formula: length (mm)×width (mm)×width (mm)×Π/6 as a % of Day 1.
This experiment was designed to determine the effect of 3TC, FTC or LFD4C alone and in combination with 5-Fluorouracil with leucovorin rescue on the growth of mouse tumor (colon 38) in immuno-competent mice. The drugs were administered to the mice according to the following schedule:
5FU/LV—150 mg/kg each i.p. once on day one
3TC—100 mg/kg p.o. b.i.d. for 5 days
FTC—100 mg/kg p.o. bid for 5 days
LFD4C—20 mg/kg p.o. b.i.d. for 5 days
Combination groups received both treatments as per above schedules.
In FIG. 1, the following legend applies:
3TC (100 mg/kg) p.o.b.i.d.×5 days;
FTC (100 mg/kg) p.o.b.i.d.×5 days;
LFd4C (20 mg/kg) p.o.b.i.d.×5 days;
Combination groups received both treatments as per above.

colon 38 = assay: Experiment 2: enhancement of the anti-cancer effect of oxaliplatin on colon 38 growth in mice; assay type: in vivo, C57BL6 female mice; details: combination with oxaliplatin 10 mg/kg i.p. once on day 1, FIG. 2; for enhancement of the anti-tumor effect of oxaliplatin on colon 38: nucleoside p.o. b.i.d. days 1-5 (3TC, FTC 100 mg/kg; LFd4C 15 mg/kg per legend); for duration of the enhancing effect with oxaliplatin: nucleoside p.o. b.i.d. days 1-5
Method: as §1, §2, §3, §4
Experiment 2 tested the effects of 3TC, FTC and LFD4C (same schedule as above) on the enhancement of anti-cancer drug effect of oxaliplatin (10 mg/kg i.p., once on day 1) on colon 38 growth in C57BL6 female mice. […].
In FIG. 2, the following legend applies:
3TC and FTC (100 mg/kg) p.o.b.i.d. day 1-5;
LFd4C (15 mg/kg) p.o.b.i.d. days 1-5;
Oxaplatin (10 mg/kg) i.p. once on day 1;
Combination groups received both treatments as described above.

| Compound | effect on the anti-cancer activity of 5-FU/LV (colon 38 mouse tumor) | growth of colon 38 mouse tumor (tumor volume as % of Day 1) (colon 38 mouse tumor) | duration of the effect on colon 38 tumor growth (colon 38 mouse tumor) | enhancement of the anti-tumor effect of oxaliplatin on colon 38 (colon 38) | duration of the enhancing effect with oxaliplatin (colon 38) |
| --- | --- | --- | --- | --- | --- |
| Nc1nc(=O)n([C@@H]2CS[C@H](CO)O2)cc1F [FTC, emtricitabine] | significant (additive or synergistic) | slows down the growth | lasted well past the 5 day therapy | clearly enhanced | lasts well after the treatment is stopped |
| Nc1nc(=O)n([C@@H]2C=C[C@H](CO)O2)cc1F [LFD4C, Elvucitabine] | significant (additive or synergistic) | slows down the growth | lasted well past the 5 day therapy | clearly enhanced | lasts well after the treatment is stopped |
